Source: ChEMBL document CHEMBL1131754, “2-heterosubstituted-3-(4-methylsulfonyl)phenyl-5-trifluoromethyl pyridines as selective and orally active cyclooxygenase-2 inhibitors” (Bioorg Med Chem Lett, 1999)
pIC50: −log10 of the molar value.

Tests used:
[1] = target: T1, Prostaglandin G/H synthase 2 (Homo sapiens, UniProt P35354); assay type: cell-based, CHO whole
T1 sequence (P35354 whole entry): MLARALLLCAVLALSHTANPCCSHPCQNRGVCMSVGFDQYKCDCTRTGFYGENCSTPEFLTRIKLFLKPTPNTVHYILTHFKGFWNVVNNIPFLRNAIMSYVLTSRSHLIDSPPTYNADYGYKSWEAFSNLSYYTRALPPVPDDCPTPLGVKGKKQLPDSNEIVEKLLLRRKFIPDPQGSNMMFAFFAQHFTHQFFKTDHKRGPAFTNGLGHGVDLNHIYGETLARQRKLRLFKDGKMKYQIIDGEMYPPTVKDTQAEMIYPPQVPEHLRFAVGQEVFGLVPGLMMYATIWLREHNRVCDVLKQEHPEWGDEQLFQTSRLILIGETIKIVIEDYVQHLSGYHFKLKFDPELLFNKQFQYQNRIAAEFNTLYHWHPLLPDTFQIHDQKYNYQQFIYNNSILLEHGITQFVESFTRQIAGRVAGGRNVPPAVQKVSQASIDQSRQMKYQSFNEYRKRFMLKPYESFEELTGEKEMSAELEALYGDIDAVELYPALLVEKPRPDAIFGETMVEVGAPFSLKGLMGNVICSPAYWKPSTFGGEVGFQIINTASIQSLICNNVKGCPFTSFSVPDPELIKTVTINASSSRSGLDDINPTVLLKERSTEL
Description: Inhibition of Prostaglandin G/H synthase 2 in CHO whole cell assay

[2] = target: T1, Prostaglandin G/H synthase 2
Description: Inhibition of Prostaglandin G/H synthase 2 in human whole blood (HWB) assay

[3] = target: T2, Prostaglandin G/H synthase 1 (Homo sapiens, UniProt P23219); assay: In vitro inhibitory concentration required against Cyclooxygenase-1 (COX-1) determined in human whole blood (HWB) assay; assay type: tissue-based
[4] = Half-life in rats; assay type: ADME, organism-based; details: rat, in vivo
[5] = Maximum concentration in rats at 1-2 hours; assay type: ADME, organism-based; details: rat, in vivo
[6] = Oral bioavailability in rat; assay type: ADME, organism-based; details: in vivo
[7] = target: T2, Prostaglandin G/H synthase 1
Description: Inhibition of Prostaglandin G/H synthase 1 in human whole blood (HWB) assay

Rattus norvegicus [8] = assay: Compound was tested in vivo for its efficacy in the rat paw edema assay; assay type: functional
Rattus norvegicus [9] = assay: Compound was tested in vivo for its efficacy in the rat pyresis assay; assay type: functional
[10] = Cmax in rats determined 6 hours after oral dosing of 20 mg/kg; assay type: ADME, organism-based; design: dose 20 mg/kg, route oral; details: rat, in vivo
[11] = Maximum concentration in rats; assay type: ADME, organism-based; details: rat, in vivo
[12] = Half life in rats; assay type: ADME, organism-based; details: rat, in vivo
[13] = Half-life in rats was determined; assay type: ADME, organism-based; details: rat, in vivo
[14] = Half-life in rats with metabolic oxidation; assay type: ADME, organism-based; details: rat, in vivo
Rattus norvegicus [15] = assay: Compound was tested in vivo for its efficacy in the model of carrageenan-induced hyperalgesia in rats; assay type: functional; details: read-out: ID50 (the source's name)

T2 sequence (P23219 whole entry): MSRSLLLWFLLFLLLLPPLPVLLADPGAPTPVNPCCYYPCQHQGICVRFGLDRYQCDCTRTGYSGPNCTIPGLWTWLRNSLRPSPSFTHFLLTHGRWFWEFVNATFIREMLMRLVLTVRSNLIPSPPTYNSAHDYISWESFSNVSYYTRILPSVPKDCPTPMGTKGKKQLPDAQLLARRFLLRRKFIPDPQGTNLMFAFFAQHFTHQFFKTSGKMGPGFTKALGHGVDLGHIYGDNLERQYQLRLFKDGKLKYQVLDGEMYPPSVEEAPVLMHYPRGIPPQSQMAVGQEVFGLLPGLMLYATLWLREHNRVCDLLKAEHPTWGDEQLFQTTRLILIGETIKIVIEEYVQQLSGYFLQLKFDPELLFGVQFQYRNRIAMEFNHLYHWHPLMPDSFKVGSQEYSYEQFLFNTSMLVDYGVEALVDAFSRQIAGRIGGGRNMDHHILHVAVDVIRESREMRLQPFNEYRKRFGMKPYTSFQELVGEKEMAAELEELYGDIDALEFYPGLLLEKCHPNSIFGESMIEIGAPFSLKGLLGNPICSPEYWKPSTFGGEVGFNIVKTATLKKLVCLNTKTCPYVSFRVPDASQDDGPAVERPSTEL

SMILES | pIC50 [1] | pIC50 [2] | bioavailability [6] | pIC50 [7] | ED50 (Rattus norvegicus [8]) | ED50 (Rattus norvegicus [9]) | other results
CS(=O)(=O)c1ccc(-c2cc(C(F)(F)F)cnc2Oc2ccccc2)cc1 | > 6.70 | > 6.40 | – | – | – | – | pIC50 [3]: > 5.91
CS(=O)(=O)c1ccc(-c2cc(C(F)(F)F)cnc2OCC2(O)CCCC2)cc1 | – | – | > 75% | 4.08 | 1.8 mg/kg | 2.2 mg/kg | half-life [4]: ≤ 4 h; Cmax [5]: 9 µM
CS(=O)(=O)c1ccc(-c2cc(C(F)(F)F)cnc2OCC(F)(F)F)cc1 | > 6.70 | 6.30 | – | < 4.00 | 2.4 mg/kg | – | Cmax [10]: 2.4 µM
C[C@]1(O)CCC[C@H]1Oc1ncc(C(F)(F)F)cc1-c1ccc(S(C)(=O)=O)cc1 | – | – | > 75% | < 4.00 | 0.4 mg/kg | 1.6 mg/kg | Cmax [11]: 9 µM; half-life [12]: ≤ 4 h
C[C@H](Oc1ncc(C(F)(F)F)cc1-c1ccc(S(C)(=O)=O)cc1)C(C)(C)O | > 6.70 | 6.34 | > 75% | < 4.00 | 2.2 mg/kg | 0.8 mg/kg | –
CC(C)(O)COc1ncc(C(F)(F)F)cc1-c1ccc(S(C)(=O)=O)cc1 | > 6.70 | 6.00 | > 75% | < 4.00 | 1.9 mg/kg | 6.8 mg/kg | half-life [4]: > 12 h
CS(=O)(=O)c1ccc(-c2cc(C(F)(F)F)cnc2OCc2ccc(Cl)cc2)cc1 | > 6.70 | < 4.48 | – | < 4.00 | – | – | –
CS(=O)(=O)c1ccc(-c2cc(C(F)(F)F)cnc2N2CCCC(CO)C2)cc1 (stereo not drawn) | > 6.70 | 6.10 | > 75% | 4.39 | 1.4 mg/kg | 0.5 mg/kg | half-life [13]: < 2 h
CS(=O)(=O)c1ccc(-c2cc(C(F)(F)F)cnc2OC(C(F)(F)F)C(F)(F)F)cc1 | > 6.70 | 6.30 | – | < 4.00 | – | – | –
CS(=O)(=O)c1ccc(-c2cc(Br)sc2-c2ccc(F)cc2)cc1 [DUP-697] | – | – | – | – | 1.3 mg/kg | – | –
CCC(O)(CC)[C@H](C)Oc1ncc(C(F)(F)F)cc1-c1ccc(S(C)(=O)=O)cc1 | > 6.70 | 5.33 | > 75% | < 4.00 | 2.8 mg/kg | 1.3 mg/kg | –
CC(C)(O)CSc1ncc(C(F)(F)F)cc1-c1ccc(S(C)(=O)=O)cc1 | – | – | > 75% | – | 1.5 mg/kg | 0.5 mg/kg | half-life [13]: > 12 h
C[C@H](CO)Sc1ncc(C(F)(F)F)cc1-c1ccc(S(C)(=O)=O)cc1 | > 6.70 | 6.85 | > 75% | 4.54 | 0.3 mg/kg | 0.3 mg/kg | half-life [14]: < 2 h; ED50 (Rattus norvegicus [15]): 0.65 mg/kg
COc1ccc2c(c1)c(CC(=O)O)c(C)n2C(=O)c1ccc(Cl)cc1 [INDOMETHACIN] | – | – | – | – | 2 mg/kg | 1.1 mg/kg | ED50 (Rattus norvegicus [15]): 1.5 mg/kg
